From patent publication US11503829B2, “Pesticidal compositions and related methods” (CJB Applied Technologies, LLC, priority 2020, dated 2022) come the findings set out here.

SMILES strings stand for the structures. Where two headings read alike, the source gives them in different places.

In test [1] the test system is Didymella fungus that is resistant to azoxystrobin. The experiment in a line: Petri dish radial growth bioassay, agar impregnated with Quadris and/or benzyl alcohol. The test is classed as cell-based.
Test [2] concerns natural population of lowland brush. Kind of test: Woody brush control with Metsulfuron Methyl. Particulars: MSM 1/5 oz/gal, no adjuvant; scale 1-5.
For test [3], the system named is black rust (Puccinia graminis tritici). The test is classed as in vivo. As to conditions: wheat, tebuconazole 2 fl oz/acre, no adjuvant, 21 days after treatment.
[4] abbreviates: Quadris 0 oz/ac, Benzyl Alcohol 6 oz/ac.

For the compound `OCc1ccccc1` [Benzyl Alcohol only, benzyl alcohol], in test [1] (setting [4]), the “Radial growth, 24 Hours” value stood at 4.83; the “Radial growth, 48 Hours” value was 8.42; the “Radial growth, 72 Hours” value is given as 8.7; the “Radial growth, 96 Hours” value is 13.98. Further, in test [1] (setting [4]), the “Radial growth, 120 Hours” value was 18.72 and the “Radial growth, 144 Hours” value came out at 25.05. In addition, the “Reduction in fungal growth (observation)” value in test [1] (benzyl alcohol alone, petri dish) is on record as “no reduction in fungal growth”.
Take `COC(=O)c1ccccc1S(=O)(=O)NC(=O)Nc1nc(C)nc(OC)n1` [MSM Alone]: the “Observation at 28 DAT” value in test [2] is 2.0.
For the compound `CC(C)(C)C(O)(CCc1ccc(Cl)cc1)Cn1cncn1` (stereo not shown) [Teb only, tebuconazole], the “Disease Severity Rating” value in test [3] (mix water 35° F.) came out at 51.3; in test [3] (mix water 70° F.), 47.
